Measured values reported in paper PMC10702058, “Phase I dose escalation study and pilot efficacy analysis of LXI-15029, a novel mTOR dual inhibitor, in Chinese subjects with advanced malignant solid tumors” (BMC Cancer, 2023).
Read-outs that look alike come from different tables or passages of the source.

Assay: Plasma pharmacokinetics of LXI-15029 (LC-MS/MS, non-compartmental analysis)
Type: in vivo, human
Method: Blood samples for PK analysis of LXI-15029 were collected on day 1 (pre-dose, 20 min, 40 min, 1 h, 1.5 h, 2 h, 3 h, 4 h, 6 h, 8 h, 12 h, 24 h, and 48 h), cycle 1 day 8 (pre-dose), cycle 1 day 15 (pre-dose), and cycle 1 day 28 (pre-dose, 20 min, 40 min, 1 h, 1.5 h, 2 h, 3 h, 4 h, 6 h, 8 h, and 12 h). The blood samples were stored at -70°C until testing. The concentration of LXI-15029 in plasma was measured using the validated liquid chromatography-tandem mass spectrometry (LC–MS/MS) method. The concentration–time information of LXI-15029 was summarized based on pre-dose and post-dose data of each patient, to explore the linearity of exposure with single dose and steady-state situations, the time to reach steady state and the predictability of single to multiple doses PK. PK parameters were calculated separately for single and repeated doses using descriptive statistics. PK analysis was performed by Covance Central Laboratory using the validated software Phoenix WinNonlin Version 8.1 (Pharsight, Mountain View, CA). A standard non-compartmental method was used to calculate the peak plasma concentration (Cmax), time to reach the Cmax (tmax), the total area under the concentration–time curve (AUC0-∞), and the elimination half-life (t1/2).

[1] = 150-mg BID group, compared with preclinical data
[2] = human, plasma, oral, multiple dose, cycle 1 day 28, 10 mg BID (n = 3), geometric mean (coefficient of variation)
[3] = human, plasma, oral, multiple dose, cycle 1 day 28, 20 mg BID (n = 3), geometric mean (coefficient of variation)
[4] = human, plasma, oral, multiple dose, cycle 1 day 28, 40 mg BID (n = 3), geometric mean (coefficient of variation)
[5] = human, plasma, oral, multiple dose, cycle 1 day 28, 60 mg BID (n = 4), geometric mean (coefficient of variation)
[6] = human, plasma, oral, multiple dose, cycle 1 day 28, 80 mg BID (n = 4), geometric mean (coefficient of variation)
[7] = human, plasma, oral, multiple dose, cycle 1 day 28, 110 mg BID (n = 3), geometric mean (coefficient of variation)
[8] = human, plasma, oral, multiple dose, cycle 1 day 28, 150 mg BID (n = 4), geometric mean (coefficient of variation)

With CNC(=O)c1cccc(-c2ccc3c(N4C5CCC4COC5)nc(N4CCOC[C@@H]4C)nc3n2)c1 [LXI-15029] the “increase of Cmax and AUC versus dose proportionality” value (10 to 150 mg, single dose day 1 and cycle 1 day 28) was “greater than the dose proportionality”, the “exposure relative to the NOAEL in dogs” value [1] was “fivefold higher” and the “exposure relative to the highest non-severely toxic dose (HNSTD) found in rats” value [1] was “threefold higher”. For the same compound, the “Cmax ss versus dose” value (cycle 1 day 28, 10 to 150 mg) was “increased with the dose increase”, the “Cmin ss, Cav ss, and AUCss versus dose” value (cycle 1 day 28, 10 to 150 mg, except for 80 mg) was “increased with the dose increase” and the “exposure (Cmax and AUC) versus dose” value (day 1, 10 to 150 mg, except for 80 mg) was “increased with the dose increase”. For the same compound, the concentration at 28 day (human, plasma, oral, 10 mg BID, multiple dose, cycle 1 day 28, 10 mg BID (n = 3), geometric mean (coefficient of variation), read-out: Cav ss) was 15.9 ng/mL, the Tmax at 28 day (human, plasma, oral, 10 mg, multiple dose, cycle 1 day 28, 10 mg BID (n = 3), median (min, max)) was 1.02 h and the half-life (human, plasma, oral, 10 mg, single dose, cycle 1 day 1, 10 mg BID (n = 3), arithmetic mean ± standard deviation, read-out: t1/2 (converted)) was 0.95 ± 0.205 h. The Tmax (human, plasma, oral, 10 mg, single dose, cycle 1 day 1, 10 mg BID (n = 3), median (min, max), read-out: Tmax) was 0.98 h, the concentration at 28 day (human, plasma, oral, 20 mg BID, multiple dose, cycle 1 day 28, 20 mg BID (n = 3), geometric mean (coefficient of variation), read-out: Cav ss) was 71.9 ng/mL and the concentration at 28 day (human, plasma, oral, 20 mg BID, multiple dose, cycle 1 day 28, 20 mg BID (n = 3), geometric mean (coefficient of variation), read-out: Cmin ss) was 1.61 ng/mL. For the same compound, the Tmax at 28 day (human, plasma, oral, 20 mg, multiple dose, cycle 1 day 28, 20 mg BID (n = 3), median (min, max)) was 1.47 h, the half-life (human, plasma, oral, 20 mg, single dose, cycle 1 day 1, 20 mg BID (n = 3), arithmetic mean ± standard deviation, read-out: t1/2 (converted)) was 1.47 ± 0.268 h and the Tmax (human, plasma, oral, 20 mg, single dose, cycle 1 day 1, 20 mg BID (n = 3), median (min, max), read-out: Tmax) was 1 h. The concentration at 28 day (human, plasma, oral, 40 mg BID, multiple dose, cycle 1 day 28, 40 mg BID (n = 3), geometric mean (coefficient of variation), read-out: Cav ss) was 139 ng/mL, the concentration at 28 day (human, plasma, oral, 40 mg BID, multiple dose, cycle 1 day 28, 40 mg BID (n = 3), geometric mean (coefficient of variation), read-out: Cmin ss) was 3.74 ng/mL and the Tmax at 28 day (human, plasma, oral, 40 mg, multiple dose, cycle 1 day 28, 40 mg BID (n = 3), median (min, max)) was 0.67 h. For the same compound, the half-life (human, plasma, oral, 40 mg, single dose, cycle 1 day 1, 40 mg BID (n = 3), arithmetic mean ± standard deviation, read-out: t1/2 (converted)) was 1.13 ± 0.324 h, the AUC(0-t) (human, plasma, oral, 40 mg, single dose, cycle 1 day 1, 40 mg BID (n = 3), geometric mean (coefficient of variation)) was 1680 ng·h/mL and the Tmax (human, plasma, oral, 40 mg, single dose, cycle 1 day 1, 40 mg BID (n = 3), median (min, max), read-out: Tmax) was 0.68 h. For the same compound, the concentration at 28 day (human, plasma, oral, 60 mg BID, multiple dose, cycle 1 day 28, 60 mg BID (n = 4), geometric mean (coefficient of variation), read-out: Cav ss) was 477 ng/mL, the concentration at 28 day (human, plasma, oral, 60 mg BID, multiple dose, cycle 1 day 28, 60 mg BID (n = 4), geometric mean (coefficient of variation), read-out: Cmin ss) was 35 ng/mL and the Tmax at 28 day (human, plasma, oral, 60 mg, multiple dose, cycle 1 day 28, 60 mg BID (n = 4), median (min, max)) was 0.98 h. It also gave a half-life (human, plasma, oral, 60 mg, single dose, cycle 1 day 1, 60 mg BID (n = 4), arithmetic mean ± standard deviation, read-out: t1/2 (converted)) of 2 ± 0.599 h, a Tmax (human, plasma, oral, 60 mg, single dose, cycle 1 day 1, 60 mg BID (n = 4), median (min, max), read-out: Tmax) of 1.25 h and a concentration at 28 day (human, plasma, oral, 80 mg BID, multiple dose, cycle 1 day 28, 80 mg BID (n = 4), geometric mean (coefficient of variation), read-out: Cav ss) of 435 ng/mL. For the same compound, the concentration at 28 day (human, plasma, oral, 80 mg BID, multiple dose, cycle 1 day 28, 80 mg BID (n = 4), geometric mean (coefficient of variation), read-out: Cmin ss) was 6.41 ng/mL, the Tmax at 28 day (human, plasma, oral, 80 mg, multiple dose, cycle 1 day 28, 80 mg BID (n = 4), median (min, max)) was 1.08 h and the half-life (human, plasma, oral, 80 mg, single dose, cycle 1 day 1, 80 mg BID (n = 4), arithmetic mean ± standard deviation, read-out: t1/2 (converted)) was 1.33 ± 0.174 h. The Tmax (human, plasma, oral, 80 mg, single dose, cycle 1 day 1, 80 mg BID (n = 4), median (min, max), read-out: Tmax) was 0.87 h, the concentration at 28 day (human, plasma, oral, 110 mg BID, multiple dose, cycle 1 day 28, 110 mg BID (n = 3), geometric mean (coefficient of variation), read-out: Cav ss) was 1080 ng/mL and the concentration at 28 day (human, plasma, oral, 110 mg BID, multiple dose, cycle 1 day 28, 110 mg BID (n = 3), geometric mean (coefficient of variation), read-out: Cmin ss) was 152 ng/mL. The Tmax (human, plasma, oral, 110 mg, multiple dose, cycle 1 day 28, 110 mg BID (n = 3), median (min, max), read-out: Tmax ss) was 0.67 h, the half-life (human, plasma, oral, 110 mg, single dose, cycle 1 day 1, 110 mg BID (n = 3), arithmetic mean ± standard deviation, read-out: t1/2 (converted)) was 1.48 ± 0.531 h and the Tmax (human, plasma, oral, 110 mg, single dose, cycle 1 day 1, 110 mg BID (n = 3), median (min, max), read-out: Tmax) was 0.7 h. For the same compound, the concentration at 28 day (human, plasma, oral, 150 mg BID, multiple dose, cycle 1 day 28, 150 mg BID (n = 4), geometric mean (coefficient of variation), read-out: Cav ss) was 2120 ng/mL, the concentration at 28 day (human, plasma, oral, 150 mg BID, multiple dose, cycle 1 day 28, 150 mg BID (n = 4), geometric mean (coefficient of variation), read-out: Cmin ss) was 452 ng/mL and the Tmax (human, plasma, oral, 150 mg, multiple dose, cycle 1 day 28, 150 mg BID (n = 4), median (min, max), read-out: Tmax ss) was 0.98 h. It also gave a half-life (human, plasma, oral, 150 mg, single dose, cycle 1 day 1, 150 mg BID (n = 4), arithmetic mean ± standard deviation, read-out: t1/2 (converted)) of 1.94 ± 0.706 h, a Tmax (human, plasma, oral, 150 mg, single dose, cycle 1 day 1, 150 mg BID (n = 4), median (min, max), read-out: Tmax) of 0.82 h and a half-life (human, plasma, oral, after multiple dosings, read-out: arithmetic mean of t1/2 across dose cohorts) of 1.13 to 3.26 h. For the same compound, the half-life (human, plasma, oral, after single dosing, read-out: arithmetic mean of t1/2 across dose cohorts) was 0.95 to 2 h, the Tmax (human, plasma, oral, cycle 1 day 28, dose range 10 to 150 mg, read-out: median range of Tmax ss) was 0.67 to 1.47 h and the Tmax (human, plasma, oral, single dose on day 1, across dose groups, read-out: median range of Tmax) was 0.68 to 1.25 h. The AUC [2] was 191 ng·h/mL, the Cmax at 28 day [2] was 115 ng/mL and the AUC [3] was 863 ng·h/mL. For the same compound, the Cmax at 28 day [3] was 350 ng/mL, the AUC [4] was 1670 ng·h/mL and the Cmax at 28 day [4] was 1010 ng/mL. For the same compound, the AUC [5] was 5730 ng·h/mL, the Cmax at 28 day [5] was 1690 ng/mL and the AUC [6] was 5220 ng·h/mL. For the same compound, the Cmax at 28 day [6] was 2260 ng/mL, the AUC [7] was 12900 ng·h/mL and the Cmax at 28 day [7] was 3930 ng/mL. For the same compound, the AUC [8] was 25500 ng·h/mL and the Cmax at 28 day [8] was 5840 ng/mL.
